# From US10584115B2, “Substituted pyridine and pyrazine BMI-1 inhibitors” (PTC Therapeutics, Inc., priority 2013, dated 2020)
# Where two headings read alike, the source gives them in different places.
# Tested on: Bmi-1 protein
# Assay: Sandwich ELISA Assay (Bmi-1 protein level in HT-1080 cells after compound treatment)
# Format: cell-based
# Procedure, shortened: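 Sandwich ELISA quantified Bmi-1 protein against recombinant standard (125–8000 pg/mL), with lysates captured overnight at 4 °C and signal by HRP/TMB at 450 nm (570 nm reference). Lysates came from HT-1080 cells incubated 40–48 h with test compounds in 0.5% DMSO.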
# [1] = Table 1, Bmi-1 sandwich ELISA, read-out: ELISA EC50 value for Bmi-1 protein
# [2] = read-out: ELISA EC50 value for Bmi-1 protein, Table 1, Bmi-1 sandwich ELISA
Structure (SMILES),EC50 [1] [nM],EC50 [2] [nM]
"Nc1ccc(Nc2cncc(-c3c(C(F)(F)F)nc4ccccn34)n2)cc1 [Cpd 60, N-{6-[2-(trifluoromethyl)imidazo[1,2-a]pyridin-3-yl]pyrazin-2-yl}benzene-1,4-diamine]",10 to 100,
"CCc1nn2ccccc2c1-c1cncc(Nc2ccc(F)cc2)n1 [compound 630, 6-(2-ethylpyrazolo[1,5-a]pyridin-3-yl)-N-(4-fluorophenyl)pyrazin-2-amine]",100 to 3000,
"Cc1cc(-c2cncc(Nc3ccc(C(F)(F)F)cc3)n2)ccn1 [compound 353, 6-(2-methylpyridin-4-yl)-N-[4-(trifluoromethyl)phenyl]pyrazin-2-amine]",100 to 3000,
"Cc1nc2ccc(Cl)cc2n1-c1cncc(Nc2ccc(OC(F)F)cc2)n1 [compound 221, 6-(6-chloro-2-methyl-1H-benzimidazol-1-yl)-N-[4-(difluoromethoxy)phenyl]pyrazin-2-amine]",1 to 10,
"COc1ccc(Nc2cncc(-c3c(C(F)(F)F)nn4ccccc34)n2)cc1 [compound 74, N-(4-methoxyphenyl)-6-[2-(trifluoromethyl)pyrazolo[1,5-a]pyridin-3-yl]pyrazin-2-amine]",< 1,
"Cc1nc2ncc(Cl)cc2n1-c1cncc(Nc2ccc(C(F)(F)F)cc2)n1 [compound 361, 6-(6-chloro-2-methyl-1H-imidazo[4,5-b]pyridin-1-yl)-N-[4-(trifluoromethyl)phenyl]pyrazin-2-amine]",1 to 10,
"Cc1nc2ccccc2n1-c1cncc(Nc2ccc(C(F)(F)F)c(F)c2)n1 [compound 209, N-[3-fluoro-4-(trifluoromethyl)phenyl]-6-(2-methyl-1H-benzimidazol-1-yl)pyrazin-2-amine]",10 to 100,
"Cc1nc2cc(F)c(F)cc2n1-c1cncc(Nc2ccc(OC(F)(F)F)c(F)c2)n1 [compound 301, 6-(5,6-difluoro-2-methyl-1H-benzimidazol-1-yl)-N-[3-fluoro-4-(trifluoromethoxy)phenyl]pyrazin-2-amine]",100 to 3000,
"FC(F)(F)Oc1ccc(Nc2cncc(-c3c(C(F)(F)F)nc4cnccn34)n2)cc1 [compound 141, N-[4-(trifluoromethoxy)phenyl]-6-[2-(trifluoromethyl)imidazo[1,2-a]pyrazin-3-yl]pyrazin-2-amine]",100 to 3000,
"COC(=O)c1ccc(Nc2cccc(-n3c(C)nc4ccc(F)cc43)n2)cc1 [Cpd 610, methyl 4-{[6-(6-fluoro-2-methyl-1H-benzimidazol-1-yl)pyridin-2-yl]amino}benzoate]",10 to 100,
"CCc1nc2ncccc2n1-c1cccc(Nc2ccc(C(F)(F)F)cc2)n1 [compound 140, 6-(2-ethyl-1H-imidazo[4,5-b]pyridin-1-yl)-N-[4-(trifluoromethyl)phenyl]pyridin-2-amine]",10 to 100,
"Cc1nc2ccccc2n1-c1cncc(Nc2ccc(OC(F)F)c(F)c2)n1 [compound 324, N-[4-(difluoromethoxy)-3-fluorophenyl]-6-(2-methyl-1H-benzimidazol-1-yl)pyrazin-2-amine]",10 to 100,
"CC(=O)c1ccc(Nc2cncc(-n3c(C)nc4ccccc43)n2)cc1 [compound 153, 1-(4-{[6-(2-methyl-1H-benzimidazol-1-yl)pyrazin-2-yl]amino}phenyl)ethanone]",1 to 10,
"FC(F)(F)c1nc2ccccn2c1-c1cccc(Nc2ccc(Cl)cc2)n1 [Cpd 17, N-(4-chlorophenyl)-6-[2-(trifluoromethyl)imidazo[1,2-a]pyridin-3-yl]pyridin-2-amine]",1 to 10,
"Cc1nc2ncc(F)cc2n1-c1cncc(Nc2ccc(C(F)(F)F)c(F)c2)n1 [compound 373, 6-(6-fluoro-2-methyl-1H-imidazo[4,5-b]pyridin-1-yl)-N-[3-fluoro-4-(trifluoromethyl)phenyl]pyrazin-2-amine]",10 to 100,
"Cc1nc2c(F)cccc2n1-c1cncc(Nc2ccc(C(F)(F)F)cc2)n1 [compound 339, 6-(4-fluoro-2-methyl-1H-benzimidazol-1-yl)-N-[4-(trifluoromethyl)phenyl]pyrazin-2-amine]",10 to 100,
"CCc1nn2ccccc2c1-c1cncc(Nc2ccc(OC(F)F)cc2)n1 [compound 521, N-[4-(difluoromethoxy)phenyl]-6-(2-ethylpyrazolo[1,5-a]pyridin-3-yl)pyrazin-2-amine]",1 to 10,
"FC(F)Oc1ccc(Nc2cncc(-c3cccc4nc(C5CC5)cn34)n2)cc1 [compound 90, 6-(2-cyclopropylimidazo[1,2-a]pyridin-5-yl)-N-[4-(difluoromethoxy)phenyl]pyrazin-2-amine]",,10 to 100
"Cc1nc2ncc(Cl)cc2n1-c1cncc(Nc2ccc(OC(F)(F)F)cc2)n1 [compound 542, 6-(6-chloro-2-methyl-1H-imidazo[4,5-b]pyridin-1-yl)-N-[4-(trifluoromethoxy)phenyl]pyrazin-2-amine]",10 to 100,
"Nc1cc(Nc2ccc(OC(F)(F)F)cc2)nc(-c2c(C(F)(F)F)nc3ccccn23)c1 [compound 198, N^2-[4-(trifluoromethoxy)phenyl]-6-[2-(trifluoromethyl)imidazo[1,2-a]pyridin-3-yl]pyridine-2,4-diamine]",10 to 100,

Structure (SMILES),EC50 [1] [nM],EC50 [2] [nM]
"Cc1cc(C)c2nc(C)n(-c3cncc(Nc4ccc(C(F)(F)F)cc4)n3)c2c1 [Cpd 421, N-[4-(trifluoromethyl)phenyl]-6-(2,4,6-trimethyl-1H-benzimidazol-1-yl)pyrazin-2-amine]",10 to 100,
"C/C(=N\O)c1ccc(Nc2cncc(-n3c(C)nc4ccccc43)n2)cc1 [compound 156, N-{4-[(1E)-N-hydroxyethanimidoyl]phenyl}-6-(2-methyl-1H-benzimidazol-1-yl)pyrazin-2-amine]",1 to 10,
"CCc1nc2cc(F)c(F)cc2n1-c1cc(N)cc(Nc2ccc(C(F)(F)F)cc2)n1 [compound 503, 6-(2-ethyl-5,6-difluoro-1H-benzimidazol-1-yl)-N^2-[4-(trifluoromethyl)phenyl]pyridine-2,4-diamine]",10 to 100,
"FC(F)(F)c1ccc(Nc2cccc(-c3c(C(F)(F)F)nc4ccccn34)n2)cn1 [Cpd 71, 6-[2-(trifluoromethyl)imidazo[1,2-a]pyridin-3-yl]-N-[6-(trifluoromethyl)pyridin-3-yl]pyridin-2-amine]",1 to 10,
"CCc1nc2ncc(Cl)cc2n1-c1cc(C#N)cc(Nc2ccc(C(F)(F)F)cc2)n1 [compound 450, 2-(6-chloro-2-ethyl-1H-imidazo[4,5-b]pyridin-1-yl)-6-{[4-(trifluoromethyl)phenyl]amino}pyridine-4-carbonitrile]",10 to 100,
"Cc1nc2cc(F)c(F)cc2n1-c1cc(C#N)cc(Nc2ccc(OC(F)(F)F)cc2)n1 [compound 243, 2-(5,6-difluoro-2-methyl-1H-benzimidazol-1-yl)-6-{[4-(trifluoromethoxy)phenyl]amino}pyridine-4-carbonitrile]",100 to 3000,
"Cc1nc2ccc(F)cc2n1-c1cc(C#N)cc(Nc2ccc(Cl)cc2)n1 [compound 612, 2-[(4-chlorophenyl)amino]-6-(6-fluoro-2-methyl-1H-benzimidazol-1-yl)pyridine-4-carbonitrile]",10 to 100,
"CCc1nn2ccccc2c1-c1cc(C#N)cc(Nc2ccc(OC(F)F)cc2)n1 [compound 527, 2-{[4-(difluoromethoxy)phenyl]amino}-6-(2-ethylpyrazolo[1,5-a]pyridin-3-yl)pyridine-4-carbonitrile]",10 to 100,
"Cc1nc2ccccc2n1-c1cncc(Nc2ccc(OCC(F)(F)F)cc2)n1 [compound 306, 6-(2-methyl-1H-benzimidazol-1-yl)-N-[4-(2,2,2-trifluoroethoxy)phenyl]pyrazin-2-amine]",100 to 3000,
"Cc1nc2ccc(F)cc2n1-c1cncc(Nc2ccc(Cl)c(F)c2)n1 [compound 654, N-(4-chloro-3-fluorophenyl)-6-(6-fluoro-2-methyl-1H-benzimidazol-1-yl)pyrazin-2-amine]",10 to 100,
"Cc1cnc(C)n1-c1cncc(Nc2ccc(C(F)(F)F)cc2)n1 [Cpd 355, 6-(2,5-dimethyl-1H-imidazol-1-yl)-N-[4-(trifluoromethyl)phenyl]pyrazin-2-amine]",100 to 3000,
"COc1ccc(Nc2cncc(-c3c(C(F)(F)F)nc4ccc(OC)cn34)n2)cc1 [Cpd 47, N-(4-methoxyphenyl)-6-[6-methoxy-2-(trifluoromethyl)imidazo[1,2-a]pyridin-3-yl]pyrazin-2-amine]",1 to 10,
"ONc1cc(Nc2ccc(C(F)(F)F)cc2)nc(-c2c(C(F)(F)F)nc3ccc(F)cn23)c1 [compound 418, 6-[6-fluoro-2-(trifluoromethyl)imidazo[1,2-a]pyridin-3-yl]-N^4-hydroxy-N^2-[4-(trifluoromethyl)phenyl]pyridine-2,4-diamine]",10 to 100,
"FC(F)(F)c1ccc(Nc2cncc(-c3c(C(F)(F)F)nn4ccccc34)n2)cc1 [compound 62, N-[4-(trifluoromethyl)phenyl]-6-[2-(trifluoromethyl)pyrazolo[1,5-a]pyridin-3-yl]pyrazin-2-amine]",,10 to 100
"CCSc1nc2ccccc2n1-c1cncc(Nc2ccc(C(F)(F)F)cc2)n1 [compound 79, 6-[2-(ethylsulfanyl)-1H-benzimidazol-1-yl]-N-[4-(trifluoromethyl)phenyl]pyrazin-2-amine]",10 to 100,
"COc1ccc2nc(C(F)(F)F)c(-c3cccc(Nc4ccc(OC(F)(F)F)cc4)n3)n2c1 [compound 101, 6-[6-methoxy-2-(trifluoromethyl)imidazo[1,2-a]pyridin-3-yl]-N-[4-(trifluoromethoxy)phenyl]pyridin-2-amine]",10 to 100,
"COc1ccc(Nc2cc(C#N)cc(-n3c(C)nc4ccc(F)cc43)n2)cc1 [compound 589, 2-(6-fluoro-2-methyl-1H-benzimidazol-1-yl)-6-[(4-methoxyphenyl)amino]pyridine-4-carbonitrile]",10 to 100,
OCCNc1cc(Nc2ccc(OC(F)F)cc2)nc(-c2c(C(F)(F)F)nc3ccccn23)c1 [compound 171],10 to 100,
"Cc1nc2cc(F)c(F)cc2n1-c1cccc(Nc2ccc(OC(F)F)cc2)n1 [compound 602, N-[4-(difluoromethoxy)phenyl]-6-(5,6-difluoro-2-methyl-1H-benzimidazol-1-yl)pyridin-2-amine]",10 to 100,
